{
  "source": "a melting point compilation (Tetko et al.; mined from patent text by program, amines drawn as free bases though some values may be those of a salt)",
  "data": [
    {"units": {"melting point": "°C"}, "values": [
      {"smiles": "O=c1ccn(-c2cc(Cl)ccc2Cl)[nH]1", "melting point": "201 to 202"},
      {"smiles": "CC(O)c1ccc(-c2ccc([N+](=O)[O-])cc2)o1", "note": "(stereo unspecified)", "melting point": "69.5 to 70.5"},
      {"smiles": "CCOC(=O)c1cncc(C#N)c1", "melting point": "58 to 59"},
      {"smiles": "c1ccc(SCCCSc2nnnn2-c2ccccc2)cc1", "melting point": "57 to 59"},
      {"smiles": "Cc1cc(C)c(N2c3ccccc3Sc3cc(C=O)ccc32)c(C)c1", "melting point": "136 to 140"},
      {"smiles": "Nc1ccc(S(=O)(=O)CCCO)cc1", "melting point": "99 to 102"},
      {"smiles": "O=S(=O)(c1ccccc1)N1CCCC1c1ccc(F)cc1", "note": "(racemic)", "melting point": 100},
      {"smiles": "FC(F)(c1ccccc1)C(F)(F)c1cccc(Br)c1", "melting point": "72 to 75"},
      {"smiles": "COC(=O)c1ccc2cc(C(O)c3ccc4c(c3)C3(C)C5(C)CCC(C5)C3(C)O4)ccc2c1", "note": "(stereo unspecified)", "melting point": "140 to 141"},
      {"smiles": "CC1CCCN(S(=O)(=O)c2ccc(OC(C)C)c(C(=O)O)c2)C1", "note": "(stereo unspecified)", "melting point": "102 to 104"},
      {"smiles": "CCC(=O)NCc1ccc2ccn(C3CCN(CCc4ccc(F)cc4)CC3)c2c1", "melting point": "141 to 142"},
      {"smiles": "O=C(O)c1ccc(Nc2c(C(=O)O)cc(Cl)cc2[N+](=O)[O-])cc1", "melting point": "264 to 266"},
      {"smiles": "C[C@H](CO)NC1=NS(=O)(=O)c2sc(Cl)cc2N1", "melting point": "203 to 204"},
      {"smiles": "COc1ccc2c(c1)C(CCNC(=O)C(F)(F)F)=C(c1ccccc1)C2", "melting point": "138 to 139"},
      {"smiles": "COc1ccc(OC)c2c1C(=O)c1c(O)ccc(O)c1C2=O", "melting point": "297 to 300"},
      {"smiles": "NC(=O)N(O)Cc1ccc(OCc2coc(-c3ccc(C(F)(F)F)cc3)n2)cc1", "melting point": "128 to 130"},
      {"smiles": "COC(=O)CC1Cc2ccc(OC)cc2NC1=O", "note": "(stereo unspecified)", "melting point": "152 to 155"},
      {"smiles": "COC(COc1ccc(Oc2ccccc2)cc1)OC", "melting point": 76.7},
      {"smiles": "O=C1COC(Nc2ccccc2)=C1C(=O)Nc1ccccc1", "melting point": "182 to 184"},
      {"smiles": "N#CCC1(C#N)CCC(=O)CC1", "melting point": "154 to 155"},
      {"smiles": "CCOC(=O)c1ncc2[nH]c3cccc(OCc4ccccc4)c3c2c1COC", "melting point": "130 to 131"},
      {"smiles": "C=C(C)C(=O)OCCCCCCOc1ccc(C(=O)Oc2ccc3ccc(=O)oc3c2)cc1", "melting point": "98 to 104"},
      {"smiles": "O=C(NC1CC1)c1ccc(-c2ccc3nnn(Cc4ccc5ncccc5c4)c3n2)cc1Cl", "melting point": "197 to 199"},
      {"smiles": "O=C(/C=C/[C@H]1CC[C@@H]2OC(=O)C[C@@H]21)COc1ccccc1", "melting point": 91},
      {"smiles": "CC(C)(C)OC(=O)N1CCN(c2ccc3nc(-c4cccs4)cn3n2)CC1", "melting point": "165 to 167"},
      {"smiles": "Cc1ccc(-c2ccc(C(=O)Nc3ccc4cc(CN5CCCC5)cnc4c3)c(F)c2)cc1", "melting point": 173},
      {"smiles": "Cc1nnc(SCC2=C(C(=O)O)N3C(=O)C(N)C3SC2)s1", "note": "(stereo unspecified)", "melting point": 206},
      {"smiles": "O=Cc1ccc(OCc2cn3c(Cl)cccc3n2)cc1", "melting point": "126 to 130"},
      {"smiles": "CC12C=CC(=O)C=C1CCC1C2C(O)CC2(C)C1CC(OCCO)C2(O)C(=O)CO", "note": "(stereo unspecified)", "melting point": "138 to 140"},
      {"smiles": "CN1CCN(c2ccccc2C=CC(=O)NCc2ccc(Cl)cc2)CC1", "melting point": "193 to 194"},
      {"smiles": "O=Cc1ccc2c(c1)ncn2-c1cccc(Br)c1", "melting point": "179 to 181"},
      {"smiles": "N#Cc1ccc(OC(Cc2ccc(OCCNC(=O)c3ccc(-c4ccccn4)cc3)cc2)C(=O)O)cc1", "note": "(stereo unspecified)", "melting point": "92 to 93"},
      {"smiles": "Nc1c(F)cc(F)c(-n2cc(C(=O)O)c(=O)c3cc(F)c(N4CC[C@H](N)C4)nc32)c1F", "melting point": "273 to 277"},
      {"smiles": "COc1ccc(-c2sc3c(c2CN(C)Cc2ccccc2)c(=O)c(C(C)=O)cn3Cc2ccccc2F)cc1", "melting point": "185 to 193"},
      {"smiles": "C=CCOc1ccc(OCCBr)cc1", "melting point": "27 to 28"},
      {"smiles": "Cc1cc(C#N)c(Nc2ccccc2[N+](=O)[O-])s1", "melting point": "99 to 102"},
      {"smiles": "Cc1ccc(-c2ccc(C#N)cc2)cc1", "melting point": "107 to 109"},
      {"smiles": "O=C(O)c1[nH]c2cc(Cl)cc(Cl)c2c1C=C1CCNN(c2ccccc2)C1=O", "melting point": "> 250"},
      {"smiles": "COc1cc2c(cc1F)C(=Cc1ccc(S(C)=O)cc1)C(C)=C2CC(=O)O", "note": "(stereo unspecified)", "melting point": "190 to 193"},
      {"smiles": "CCOC(=O)c1cn(CC)c2nc(OC)c([N+](=O)[O-])cc2c1=O", "melting point": "224 to 227"},
      {"smiles": "NCC1Cc2cc(-c3ccccc3)cc(-c3ccccc3F)c2O1", "note": "(stereo unspecified)", "melting point": "> 250"},
      {"smiles": "COC(=O)C(=NO)c1nc2cc(C)ccc2oc1=O", "melting point": "176 to 177"},
      {"smiles": "O=c1c2ccc(Cl)cc2[nH]c2c(O)nn(CCN3CCN(c4ccccc4)CC3)c(=O)c12", "melting point": "361 to 364"},
      {"smiles": "CCOC(OCC)C(N)=C(c1ccncc1N)c1ccccc1Cl", "melting point": "94 to 95"},
      {"smiles": "COC(=O)c1ccc(C(=O)/C=C/c2cc(-c3cc4ccccc4s3)c(OC)cc2OC)cc1", "melting point": "149 to 151"},
      {"smiles": "Cc1cccc(C(=O)c2ncccc2C(=O)O)c1", "melting point": "184 to 189"},
      {"smiles": "CCOC(=O)CCc1cccc(-c2c(CC(=O)Nc3ccc(F)cc3C(F)(F)F)c(=O)oc3ccccc23)c1", "melting point": "163 to 164"},
      {"smiles": "Fc1ccc(N2CCN(Cc3cn4cc(Cl)ccc4n3)CC2)cc1", "melting point": "130 to 131"},
      {"smiles": "CCCCC1(CCCC)CS(=O)(=O)c2ccc(N(C)C)cc2[C@@H](c2ccc(OCc3ccc(C(=O)O)cc3)cc2)[C@H]1O", "melting point": "156 to 159"},
      {"smiles": "Cn1nnnc1S(=O)CCCCS(=O)(=O)c1nnnn1C", "note": "(stereo unspecified)", "melting point": "147 to 149"},
      {"smiles": "NC(=O)c1c(Br)cc(Br)c(C(=O)O)c1Br", "melting point": "> 280"}
    ]}
  ]
}
